{"source": "patent US7250505B1", "about": "“Isolation and expression of a disabled protein gene mDab1 and methods” (Fred Hutchinson Cancer Research Center, priority 1997, dated 2007)", "key": {"mDab1 PTB [1]": {"biological_target": "T1, mDab1 PTB (Mus musculus, UniProt P97318)", "T1 construct": "the region corresponding to the mDab1 PTB, residues 29 to 197; made in house; host or cells: Escherichia coli strain TG-1", "T1 sequence (P97318 29-197)": "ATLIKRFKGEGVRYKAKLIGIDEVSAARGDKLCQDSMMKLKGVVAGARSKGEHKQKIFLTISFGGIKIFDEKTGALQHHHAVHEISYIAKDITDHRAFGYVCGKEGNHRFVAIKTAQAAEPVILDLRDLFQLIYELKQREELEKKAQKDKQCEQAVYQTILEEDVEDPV", "assay": "Competition of GST-mDab1 PTB binding to LUVs containing PtdIns4,5P2 by inositol phosphates", "protocol": "GST fusion proteins containing the Shc or mDab1 PTB domain were compared for their ability to bind LUVs that contained phosphotidylisositol 4,5 P2 (PtdIns4,5P2), phosphatidylserine (PtdSer) and phosphatidylethanolamine (PtdEth). Methods for the production of LUVs and assays for binding to Shc phosphotyrosine-binding domains can found in Ravichandran, et al., Mol. Cell. Biol. 17:5540-5549 (1997) which is incorporated herein by reference. After the fusion proteins and a GST control were incubated with the LUVs the reactions were centrifuged and the presence of the fusion proteins were detected by SDS PAGE and Western blotting with antibodies to GST as described above. GST-Shc PTB and GST-mDab1 PTB fusion proteins were found in the high speed pellet fraction in the presence of but not in the absence of LUVs. While the GST fusion protein control was found in the high speed supernatant in the presence of absence of the LUVs.\nThe specificity of mDab1 PTB binding to phospholipids was also determined. For these studies LUVs were prepared containing equal quantities of PtdSer, phosphatidylcholine (PtdCho) and Ptd Eth, and 0 or 5% by weight of PtdIns4P, PtdIns4,5P2, or PdtIns3,4,5P3. This corresponded to approximately 7.5 μM phosphoinositide in the outer leaflet of the lipid bilayer. Detection of binding to the LUVs was determined as described above.\nmDab1 PTB binding to LUVs containing phosphoinositides in the presence of various phosphorylated isomers of inositol was also examined to determine whether the binding of mDab1 PTB to phosphoinositides was specific or was the result of a strong affinity for strongly anionic phospholipids. […] Binding was competed with D-Ins1,4,5P3, but not by L-Ins1, 4,5P3."}, "mDab1 PTB domain": {"biological_target": "T2, mDab1 PTB domain (Mus musculus, UniProt P97318)", "T2 construct": "the region corresponding to the mDab1 PTB, residues 29 to 197; made in house; host or cells: Escherichia coli strain TG-1", "T2 sequence (P97318 29-197)": "T1 sequence (P97318 29-197)", "assay": "Binding of radioactively labeled GST-mDab1 PTB domain fusion protein to synthetic peptides in a grid array on cellulose", "settings": "15 to 17 residue peptides with NPXY motifs on cellulose sheet", "protocol": "The ability of the mDab1 PTB domain to interact directly with synthetic peptides based on the sequences identified in the two-hybrid screen was tested to identify the optimal sequence for mDab1 PTB domain binding. […] The purified, radioactive fusion protein was then incubated with a sheet of cellulose paper onto which different 15 to 17 residue synthetic peptides had been synthesized in a grid array (Niebuhr, et al., EMBO J. 16:5433-5444 (1997), incorporated herein by reference). Each sheet contained up to 100 different peptide sequences. After incubation, the sheet was washed and exposed to film, and bound PTB domain fusion protein was quantified. […] The mDab1 PTB domain was tested against peptides containing NPXY motifs from APP, the APP relatives APLP1 and APLP2, LRP, the LRP-related LDL receptor, Ship, and known ligands for the Shc and IRS-1 PTB domains, namely the EGF receptor, HER3 receptor, NGF receptor (TrkA), and insulin receptor. The mDab1 PTB domain was also tested against peptide motifs with phosphotyrosine in place of the tyrosine of the NPXY sequence (i.e. NPXpY peptides). The amount of radioactivity associated with each peptide was quantified with a PhosphorImager (Molecular Dynamics), and depicted as a percentage of that which associated with the APP peptide.\nTo determine which residues in the APP sequence are involved in the interaction with the mDab1 PTB, an array of peptides based on the APP sequence with alanine substituted at each position in turn were synthesized. The ability of each peptide to bind to the PTB domain was compared to wild-type. […] Only the side chains of residues on the amino-terminal side of the NPXY motif appear to influence the strength of the interaction.\nTo determine the features of the APP peptide that were recognized by the mDab1 PTB domain, all nineteen amino acids, except cysteine, were substituted at several positions. In all cases the mDab1 PTB domain bound better to the wild-type APP sequence than to any altered sequence. Most substitutions of residues Gly-6, Tyr-5, Asn-3, Pro-2 and Tyr-0 inhibited PTB domain binding by greater than 80%. […] For example, the significant binding of the p150 Ship, LRP, and LDL receptor peptides implies that replacement of Tyr-5 with phenylalanine is permitted provided other changes are also made."}, "mDab1 PTB [2]": {"biological_target": "T1, mDab1 PTB", "assay": "GST-mDab1 PTB binding of tyrosine phosphorylated proteins from E13 mouse head lysates in the presence of phosphoamino acid competitors", "settings": "competitor in binding buffer (50 mM)", "protocol": "Lysates from 293T cells transfected with retroviral vectors encoding mDab555 alone; Src 527F alone; Src527F and mDab555 together; or Src527F and mDab1 98/200F, which is described in more detail below, were either bound to immobilized GST fusions proteins or were immunoprecipitated with anti-mDab1 or preimmune antibodies. Binding assays and analysis were carried out essentially as described for immunoprecipitations with 5 μg of GST fusion protein immobilized on glutathione agarose beads. Phenyl phosphate and phosphoserine were used at 50 mM for competition experiments. After washing, mDab1 bound to the immobilized SH2 domains was detected by immunoblotting. […] The Abl and Csk SH2 domains do form high affinity complexes with other tyrosine phosphorylated molecules however (Sabe et al., Proc. Natl. Acad. Sci. USA 91:3984-3988 (1994); Duyster et al., ibid. (1995)).\nTo examine whether the mDab1 PTB binds proteins that are tyrosine phosphorylated during neural development, a GST fusion protein containing the mDab1 PTB, a mutant mDab1 PTB in which Arg 56 was changed to Glu (mDab1 56E) or GST alone. was incubated with lysates from E13 mouse heads. Bound proteins were eluted, resolved and immunoblotted with anti-phosphotyrosine antibodies. The mDab1 PTB bound tyrosine phosphorylated proteins of 200, 120, 50-65 and 40 kDa.\nTo test whether the binding of proteins to the mDab1 PTB is phosphotyrosine dependent, binding experiments were done in the presence of the phosphotyrosine analog phenylphosphate. The assays was conducted as described above and phenylphosphate or phosphoserine were included in the binding buffer to investigate binding specificity. Proteins were eluted and analyzed as described above. […] However the binding of the 50-65 kDa proteins was not affected by either competitor."}}, "note": "No end group written: not given here."}
{"compound": "O=P(O)(O)O[C@@H]1[C@H](O)[C@H](O)[C@@H](OP(=O)(O)O)[C@H](OP(=O)(O)O)[C@H]1O", "note": "[D-Ins1,4,5P3]", "values": [{"measurement": "competition of GST-mDab1 PTB binding to LUVs containing PtdIns4,5P2", "setting": "mDab1 PTB [1]; competitor at 30 μM", "result": "weak competition"}, {"measurement": "competition of GST-mDab1 PTB binding to LUVs containing PtdIns4,5P2", "setting": "mDab1 PTB [1]; competitor at 100 μM", "result": "competed"}]}
{"compound": "NFTNPVY [SEQ ID NO:28, peptide with the more carboxy-terminal NPXY motif of LRP]", "values": [{"measurement": "binding of mDab1 PTB domain to peptide", "setting": "mDab1 PTB domain", "result": "bound"}]}
{"compound": "O=P(O)(O)Oc1ccccc1", "note": "[phenylphosphate]", "values": [{"measurement": "binding of the 50-65 kDa proteins to mDab1 PTB in presence of competitor", "setting": "mDab1 PTB [2]", "result": "not affected"}, {"measurement": "binding of the 120 and 40 kDa phosphotyrosyl proteins to mDab1 PTB in presence of competitor", "setting": "mDab1 PTB [2]", "result": "reduced significantly"}]}
{"compound": "NSSNPEY [SEQ ID NO:34]", "values": [{"measurement": "binding of mDab1 PTB domain to peptide", "setting": "mDab1 PTB domain", "result": "failed to interact"}]}
{"compound": "N[C@@H](COP(=O)(O)O)C(=O)O", "note": "[phosphoserine]", "values": [{"measurement": "binding of the 50-65 kDa proteins to mDab1 PTB in presence of competitor", "setting": "mDab1 PTB [2]", "result": "not affected"}, {"measurement": "binding of the 120 and 40 kDa phosphotyrosyl proteins to mDab1 PTB in presence of competitor", "setting": "mDab1 PTB [2]", "result": "to a less extent"}]}
{"compound": "IIENPQY [SEQ ID NO:33]", "values": [{"measurement": "binding of mDab1 PTB domain to peptide", "setting": "mDab1 PTB domain", "result": "failed to interact"}]}
{"compound": "O=P(O)(O)O[C@@H]1[C@@H](O)[C@H](OP(=O)(O)O)[C@@H](OP(=O)(O)O)[C@H](O)[C@@H]1O", "note": "[L-Ins1, 4,5P3]", "values": [{"measurement": "competition of GST-mDab1 PTB binding to LUVs containing PtdIns4,5P2", "setting": "mDab1 PTB [1]; competitor at 100 μM", "result": "not"}]}
{"compound": "NFDNPVY [SEQ ID NO:29]", "values": [{"measurement": "binding of mDab1 PTB domain to peptide", "setting": "mDab1 PTB domain", "result": "bound"}]}
{"compound": "MFENPLY [SEQ ID NO:30]", "values": [{"measurement": "binding of mDab1 PTB domain to peptide", "setting": "mDab1 PTB domain", "result": "better than the other"}]}
{"compound": "NVGNPEY [SEQ ID NO:32]", "values": [{"measurement": "binding of mDab1 PTB domain to peptide", "setting": "mDab1 PTB domain", "result": "failed to interact"}]}
